Measured values: patent publication US20260356856A1, “KRAS G12S AND G12C INHIBITORS” (MIRATI THERAPEUTICS, INC., priority 2023, published 2026)

Assays:
KRas G12C = target: T1, KRas G12C (Homo sapiens, UniProt P01116, G12C); test: KRas binding assay, TR-FRET displacement of Cy5 labelled tracer; details: 60-minute incubation at room temperature, 1% DMSO, pH 7.5
T1 construct: Biotinylated KRas (corresponding to amino acids 1-169, produced at Accelegan Inc.); biotin (biotinylated); purchased Accelegan Inc
T1 sequence (P01116 1-169 isoform P01116-2 G12C): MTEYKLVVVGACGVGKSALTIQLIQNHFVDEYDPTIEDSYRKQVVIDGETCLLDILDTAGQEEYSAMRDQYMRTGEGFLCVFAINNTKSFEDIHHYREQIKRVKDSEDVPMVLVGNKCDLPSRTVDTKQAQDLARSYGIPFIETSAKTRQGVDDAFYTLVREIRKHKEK
Method in brief: (§1)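 Room-temperature incubation (60 min) of compound with biotinylated KRas 1-169, tracer and Tb-streptavidin preceded the TR-FRET read. Final DMSO was 1%; buffer pH 7.5. Percent-of-control values went into a 4-parameter equation to give IC50.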

KRas G12S = target: T2, KRas G12S (Homo sapiens, UniProt P01116, G12S); test: as above; details: 60-minute incubation at room temperature, 1% DMSO, pH 7.5
T2 construct: Biotinylated KRas (corresponding to amino acids 1-169, produced at Accelegan Inc.); biotin (biotinylated); purchased Accelegan Inc
T2 sequence (P01116 1-169 isoform P01116-2 G12S): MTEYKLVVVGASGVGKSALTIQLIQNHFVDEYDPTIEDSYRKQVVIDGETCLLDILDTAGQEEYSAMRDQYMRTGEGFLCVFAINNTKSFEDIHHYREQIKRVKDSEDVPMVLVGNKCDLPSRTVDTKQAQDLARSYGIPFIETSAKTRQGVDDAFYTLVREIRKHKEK
Method in brief: as §1

KRas WT = target: T3, KRas WT (Homo sapiens, UniProt P01116); test: as above; details: 60-minute incubation at room temperature, 1% DMSO, pH 7.5
T3 construct: Biotinylated KRas (corresponding to amino acids 1-169, produced at Accelegan Inc.); biotin (biotinylated); purchased Accelegan Inc
T3 sequence (P01116 1-169 isoform P01116-2): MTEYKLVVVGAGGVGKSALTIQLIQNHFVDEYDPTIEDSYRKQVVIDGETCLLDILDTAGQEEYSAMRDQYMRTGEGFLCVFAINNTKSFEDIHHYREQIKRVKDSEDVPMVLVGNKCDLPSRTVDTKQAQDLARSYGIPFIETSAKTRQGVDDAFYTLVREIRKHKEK
Method in brief: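 Compound competes with tracer for biotin-labelled KRas (amino acids 1-169) bound to terbium-streptavidin. Incubation runs 60 minutes at room temperature, final DMSO 1%. IC50 values derive from a 4-parameter fit.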

[1] = target: T4, KRas-mediated phosphorylation of ERK in MKN1 cells (Homo sapiens, UniProt P01116); test: Inhibition of KRas-mediated phosphorylation of ERK (HTRF), MKN1 cells; assay type: cell-based; details: MKN1 cells (KRas WT); HTRF pERK; 3 h incubation
T4 construct: pERK HTRF read-out
T4 sequence (P01116 1-188 isoform P01116-2): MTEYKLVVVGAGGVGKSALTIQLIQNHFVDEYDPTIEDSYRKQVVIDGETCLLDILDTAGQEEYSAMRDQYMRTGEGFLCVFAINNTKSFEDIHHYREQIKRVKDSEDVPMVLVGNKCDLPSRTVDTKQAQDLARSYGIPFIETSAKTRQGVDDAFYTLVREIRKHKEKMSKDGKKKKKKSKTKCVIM
Procedure: Inhibition of KRas Phosphorylation of ERK (HTRF) by Exemplary Compounds of Formula (Ia) or (Ib)
Cisbio HTRF Advanced pERK Assay Catalog #64AERPEH • Cells: MKN1, PSN1 • Procedure: • 1. Day 1: Seed 6,000 cells/well −25 μl/well in 384-well white solid bottom plate; RPM1_10% FBS. Incubate overnight at 37 °C/5% CO2. • 2.

[2] = target: T5, KRas-mediated phosphorylation of ERK in A549 cells (Homo sapiens, UniProt P01116, G12S); test: Inhibition of KRas-mediated phosphorylation of ERK (HTRF), A549 cells; assay type: cell-based; details: HTRF pERK, 3 h incubation
T5 construct: pERK HTRF read-out
T5 sequence (P01116 1-188 isoform P01116-2 G12S): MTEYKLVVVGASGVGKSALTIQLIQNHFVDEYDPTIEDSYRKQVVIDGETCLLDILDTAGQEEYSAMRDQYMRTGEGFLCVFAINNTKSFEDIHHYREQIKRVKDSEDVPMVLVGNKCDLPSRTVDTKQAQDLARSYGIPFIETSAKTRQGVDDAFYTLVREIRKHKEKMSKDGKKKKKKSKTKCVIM

| SMILES | IC50 (KRas G12C) [nM] | IC50 (KRas G12S) [nM] | IC50 (KRas WT) [nM] | IC50 [1] [nM] | IC50 [2] [nM] |
| --- | --- | --- | --- | --- | --- |
| CCc1c(F)ccc2cc(O)cc(-c3ncc4c(N5C[C@H]6CC(C(=O)n7ccc(C)n7)C[C@@H]6C5)nc(OC[C@@]56CCCN5C[C@H](F)C6)nc4c3F)c12 [Example 115, ((3aS,6aS)-2-(7-(8-ethyl-7-fluoro-3-hydroxynaphthalen-1-yl)-8-fluoro-2-(((2R,7aS)-2-fluorotetrahydro-1H-pyrrolizin-7a(5H)-yl)methoxy)pyrido[4,3-d]pyrimidin-4-yl)octahydrocyclopenta[c]pyrrol-5-yl)(3-methyl-1H-pyrazol-1-yl)methanone] | 4120 | 1800 | 260 | 2670 | > 10000 |
| CCc1c(F)ccc2cc(O)cc(-c3ncc4c(N5C[C@H]6CC(C(=O)n7ccc(C)n7)C[C@H]6C5)nc(OC[C@@]56CCCN5C[C@H](F)C6)nc4c3F)c12 (stereo partly drawn) [Example 116, ((3aR,6aS)-2-(7-(8-ethyl-7-fluoro-3-hydroxynaphthalen-1-yl)-8-fluoro-2-(((2R,7aS)-2-fluorotetrahydro-1H-pyrrolizin-7a(5H)-yl)methoxy)pyrido[4,3-d]pyrimidin-4-yl)octahydrocyclopenta[c]pyrrol-5-yl)(3-methyl-1H-pyrazol-1-yl)methanone] | 111 | 11 | 3480 | 4440 | 35 |
| CCc1c(F)ccc2cc(O)cc(-c3ncc4c(N5CCCC6CC6(C(=O)n6ccc(C)n6)CC5)nc(OC[C@@]56CCCN5C[C@H](F)C6)nc4c3F)c12 (stereo partly drawn) [Example 117, (4-(7-(8-ethyl-7-fluoro-3-hydroxynaphthalen-1-yl)-8-fluoro-2-(((2R,7aS)-2-fluorotetrahydro-1H-pyrrolizin-7a(5H)-yl)methoxy)pyrido[4,3-d]pyrimidin-4-yl)-4-azabicyclo[6.1.0]nonan-1-yl)(3-methyl-1H-pyrazol-1-yl)methanone] | 129 | 158 | 68 | 333 | 4050 |
| CCc1c(F)ccc2cc(O)cc(-c3ncc4c(N5C[C@@H]6[C@H](C5)[C@H]6C(=O)n5ccc(C)n5)nc(OC[C@@]56CCCN5C[C@H](F)C6)nc4c3F)c12 [Example 118, ((1R,5S,6S)-3-(7-(8-ethyl-7-fluoro-3-hydroxynaphthalen-1-yl)-8-fluoro-2-(((2R,7aS)-2-fluorotetrahydro-1H-pyrrolizin-7a(5H)-yl)methoxy)pyrido[4,3-d]pyrimidin-4-yl)-3-azabicyclo[3.1.0]hexan-6-yl)(3-methyl-1H-pyrazol-1-yl)methanone] | 591 | 437 | 873 | 5750 | 7840 |
| CCc1c(F)ccc2cc(O)cc(-c3ncc4c(N5CC(C(=O)n6ccc(C)n6)C6(CC6)C5)nc(OC[C@@]56CCCN5C[C@H](F)C6)nc4c3F)c12 (stereo partly drawn) [Example 119, (5-(7-(8-ethyl-7-fluoro-3-hydroxynaphthalen-1-yl)-8-fluoro-2-(((2R,7aS)-2-fluorotetrahydro-1H-pyrrolizin-7a(5H)-yl)methoxy)pyrido[4,3-d]pyrimidin-4-yl)-5-azaspiro[2.4]heptan-7-yl)(3-methyl-1H-pyrazol-1-yl)methanone] | 171 | 183 | 402 | > 10000 | > 10000 |
| CCc1c(F)ccc2cc(O)cc(-c3ncc4c(N5CC6C(CC(=O)n7ccc(C)n7)C6C5)nc(OC[C@@]56CCCN5C[C@H](F)C6)nc4c3F)c12 (stereo partly drawn) [Example 120, 2-(3-(7-(8-ethyl-7-fluoro-3-hydroxynaphthalen-1-yl)-8-fluoro-2-(((2R,7aS)-2-fluorotetrahydro-1H-pyrrolizin-7a(5H)-yl)methoxy)pyrido[4,3-d]pyrimidin-4-yl)-3-azabicyclo[3.1.0]hexan-6-yl)-1-(3-methyl-1H-pyrazol-1-yl) ethan-1-one] | 142 | 186 | 1210 | 5380 | 229 |

The next molecules have a lower IC50 (KRas G12C) than those just listed; values first:

| IC50 (KRas G12C) [nM] | IC50 (KRas G12S) [nM] | IC50 (KRas WT) [nM] | IC50 [1] [nM] | IC50 [2] [nM] | SMILES |
| --- | --- | --- | --- | --- | --- |
| 9 | 5 | 19 | 342 | 38 | CCc1c(F)ccc2cc(O)cc(-c3ncc4c(NCCC(=O)n5ccc(C)n5)nc(OC[C@@]56CCCN5C[C@H](F)C6)nc4c3F)c12 [Example 122, 3-((7-(8-ethyl-7-fluoro-3-hydroxynaphthalen-1-yl)-8-fluoro-2-(((2R,7aS)-2-fluorotetrahydro-1H-pyrrolizin-7a(5H)-yl)methoxy)pyrido[4,3-d]pyrimidin-4-yl)amino)-1-(3-methyl-1H-pyrazol-1-yl) propan-1-one] |
| 59 | 46 | 21 | 187 | 1840 | Cc1ccn(C(=O)C2CCCN(c3nc(OC[C@@]45CCCN4C[C@H](F)C5)nc4c(F)c(-c5ccc(F)c6sc(N)c(C#N)c56)c(Cl)cc34)CCC2)n1 [Example 134, 2-amino-4-(6-chloro-8-fluoro-2-(((2R,7aS)-2-fluorotetrahydro-1H-pyrrolizin-7a(5H)-yl)methoxy)-4-(5-(3-methyl-1H-pyrazole-1-carbonyl)azocan-1-yl)quinazolin-7-yl)-7-fluorobenzo[b]thiophene-3-carbonitrile] |
| 9 | 6 | 11 | 83 | 6 | Cc1ccn(C(=O)C2CCN(c3nc(OC[C@@]45CCCN4C/C(=C\F)C5)nc4c(F)c(-c5ccc(F)c6sc(N)c(C#N)c56)c(Cl)cc34)CC2)n1 [Example 135, 2-amino-4-(6-chloro-8-fluoro-2-(((S,Z)-2-(fluoromethylene)tetrahydro-1H-pyrrolizin-7a(5H)-yl)methoxy)-4-(4-(3-methyl-1H-pyrazole-1-carbonyl)piperidin-1-yl)quinazolin-7-yl)-7-fluorobenzo[b]thiophene-3-carbonitrile] |
| 16 | 17 | 23 | 13 | 249 | Cc1ccn(C(=O)C2CCCCN(c3nc(OC[C@@]45CCCN4C[C@H](F)C5)nc4c(F)c(-c5ccc(F)c6sc(N)c(C#N)c56)c(Cl)cc34)C2)n1 (stereo partly drawn) [Example 136, 2-amino-4-(6-chloro-8-fluoro-2-(((2R,7aS)-2-fluorotetrahydro-1H-pyrrolizin-7a(5H)-yl)methoxy)-4-(3-(3-methyl-1H-pyrazole-1-carbonyl)azepan-1-yl)quinazolin-7-yl)-7-fluorobenzo[b]thiophene-3-carbonitrile] |
| 13 | 10 | 44 | 142 | 29 | Cc1ccn(C(=O)C2CCCCN(c3nc(OC[C@@]45CCCN4C[C@H](F)C5)nc4c(F)c(-c5ccc(F)c6sc(N)c(C#N)c56)c(Cl)cc34)CC2)n1 (stereo partly drawn) [Example 137, 2-amino-4-(6-chloro-8-fluoro-2-(((2R,7aS)-2-fluorotetrahydro-1H-pyrrolizin-7a(5H)-yl)methoxy)-4-(4-(3-methyl-1H-pyrazole-1-carbonyl)azocan-1-yl)quinazolin-7-yl)-7-fluorobenzo[b]thiophene-3-carbonitrile] |
| 16 | 37 | 45 | 45 | 1210 | CCc1c(F)ccc2cc(O)cc(N3CCc4c(nc(OC[C@@]56CCCN5C[C@H](F)C6)nc4N4CCCCC(C(=O)n5ccc(C)n5)C4)C3)c12 (stereo partly drawn) [Example 147, (1-(7-(8-ethyl-7-fluoro-3-hydroxynaphthalen-1-yl)-2-(((2R,7aS)-2-fluorotetrahydro-1H-pyrrolizin-7a(5H)-yl)methoxy)-5,6,7,8-tetrahydropyrido[3,4-d]pyrimidin-4-yl)azepan-3-yl)(3-methyl-1H-pyrazol-1-yl)methanone] |
